Where a name gives a salt, the structure may show the parent alone.
Each compound was assayed on Acinetobacter baumannii ATCC17961 (assay: Antimicrobial susceptibility testing: 90% growth inhibitory concentration (IC90) determination in Iso-Sensitest broth, OD600 growth). Conditions: Acinetobacter baumannii, ATCC17961, 16 h, strain ATCC 17961, OD600 growth over 16 h, read-out: A. baumannii ATCC 17961 IC90.
Format: cell-based
How it was run: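 Growth monitored at 600 nm every 20 min for 16 h at 35±2 °C, inoculum ~5×10^(5) CFU/ml in Iso-Sensitest medium. Compounds in 10-point twofold series, e.g. 50 to 0.097 μM final; 90% inhibitory concentration taken from log-phase growth.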

First: NCCOCCNC(=O)c1ccc(Nc2nccn3c(-c4cn(CC5CC5)nc4C(F)(F)F)cnc23)cc1F [Example 811, N-(2-(2-aminoethoxy)ethyl)-4-((3-(1-(cyclopropyl-methyl)-3-(trifluoromethyl)-1H-pyrazol-4-yl)imidazo[1,2-a]pyrazin-8-yl)amino)-2-fluorobenzamide hydrochloride]
Second: NCC(=O)N1CCN(C(=O)c2ccc(Nc3nccn4c(-c5cn(CC6CC6)nc5C(F)(F)F)cnc34)cc2F)CC1 [Example 814, 2-amino-1-(4-(4-((3-(1-(cyclopropyl-methyl)-3-(trifluoromethyl)-1H-pyrazol-4-yl)imidazo[1,2-a]pyrazin-8-yl)amino)-2-fluorobenzoyl)piperazin-1-yl)ethan-1-one hydrochloride]
The IC90 of the first is 1.6-fold higher: 230 nM for the first, 140 nM for the second.

`NCC(=O)N1CCN(C(=O)c2ccc(Nc3nccn4c(-c5cn(CC(F)F)nc5C(F)(F)F)cnc34)cc2F)CC1` [Example 812, 2-amino-1-(4-(4-(3-(1-2,2-difluoroethyl)-3-(trifluoromethyl)-1H-pyrazol-4-yl)imidazo[1,2-a]pyrazin-8-yl)amino)-2-fluorobenzoyl) piperazin-1-yl) ethan-1-one hydrochloride] and `N#CCn1cc(-c2cnc3c(Nc4ccc(C(=O)N5CCN(C(=O)CN)CC5)c(F)c4)nccn23)c(C(F)(F)F)n1` [Example 813, 2-(4-(8-((3-fluoro-4-(4-glycylpiperazine-1-carbonyl)phenyl)amino)imidazo [1,2-a]pyrazin-3-yl)-3-(trifluoromethyl)-1H-pyrazol-1-yl)acetonitrile hydrochloride] are within 1.5-fold of each other in IC90: 200 nM for the first, 210 nM for the second.

`N#CCn1cc(-c2cnc3c(Nc4ccc(C(=O)NCCNCC(=O)NCCN)c(Cl)c4)nccn23)c(C(F)(F)F)n1` [Example 815, N-(2-((2-((2-aminoethyl)amino)-2-oxoethyl)amino)ethyl)-2-chloro-4-((3-(1-(cyanomethyl)-3-(trifluoromethyl)-1H-pyrazol-4-yl)imidazo[1,2-α]pyrazin-8-yl)amino)benzamide formate] and `N#CCn1cc(-c2cnc3c(Nc4ccc(C(=O)NCCNCC(=O)NCCCN)c(Cl)c4)nccn23)c(C(F)(F)F)n1` [Example 819, N-(2-((2-((3-aminopropyl)amino)-2-oxoethyl)amino)ethyl)-2-chloro-4-((3-(1-(cyanomethyl)-3-(trifluoromethyl)-1H-pyrazol-4-yl)imidazo[1,2-a]pyrazin-8-yl)amino) benzamide formate] are the same in IC90: 180 nM for the first, 180 nM for the second.

First: N#CCn1cc(-c2cnc3c(Nc4ccc(C(=O)NCCNCC(=O)NC5CNC5)c(Cl)c4)nccn23)c(C(F)(F)F)n1 [Example 816, N-(2-(2-(azetidin-3-ylamino)-2-oxoethyl)amino) ethyl)-2-chloro-4-((3-(1-(cyanomethyl)-3-(trifluoromethyl)-1H-pyrazol-4-yl)imidazo[1,2-a]pyrazin-8-yl)amino) benzamide formate]
Second: N#CCn1cc(-c2cnc3c(Nc4ccc(C(=O)NCCNCC(=O)N[C@H]5CCNC5)c(Cl)c4)nccn23)c(C(F)(F)F)n1 [Example 817, (S)-2-chloro-4-((3-(1-(cyanomethyl)-3-(trifluoromethyl)-1H-pyrazol-4-yl)imidazo[1,2-a]pyrazin-8-yl)amino)-N-(2-((2-oxo-2-(pyrrolidin-3-ylamino)ethyl)amino)ethyl) benzamide formate]
The IC90 of the first is 1.6-fold higher: 290 nM for the first, 180 nM for the second.

`N#CCn1cc(-c2cnc3c(Nc4ccc(C(=O)NCCNCC(=O)N[C@@H]5CCNC5)c(Cl)c4)nccn23)c(C(F)(F)F)n1` [Example 818, (R)-2-chloro-4-((3-(1-(cyanomethyl)-3-(trifluoromethyl)-1H-pyrazol-4-yl)imidazo[1,2-a]pyrazin-8-yl)amino)-N-(2-((2-oxo-2-(pyrrolidin-3-ylamino)ethyl)amino)ethyl) benzamide formate] and `O=C(CNCCNC(=O)c1ccc(Nc2nccn3c(-c4cn(CC(F)F)nc4C(F)(F)F)cnc23)cc1Cl)N[C@H]1CCNC1` [Example 822, (S)-2-chloro-4-(3-(1-2,2-difluoroethyl)-3-(trifluoromethyl)-1H-pyrazol-4-yl)imidazo[1,2-a]pyrazin-8-yl)amino)-N-(2-((2-oxo-2-(pyrrolidin-3-ylamino)ethyl) amino)ethyl) benzamide formate] are the same in IC90: 150 nM for the first, 150 nM for the second.

`NCCNC(=O)CNCCNC(=O)c1ccc(Nc2nccn3c(-c4cn(CC(F)F)nc4C(F)(F)F)cnc23)cc1Cl` [Example 820, N-(2-((2-((2-aminoethyl)amino)-2-oxoethyl)amino)ethyl)-2-chloro-4-(3-(1-(2,2-difluoroethyl)-3-(trifluoromethyl)-1H-pyrazol-4-yl)imidazo[1,2-a]pyrazin-8-yl)amino) benzamide formate] and `NCCCNC(=O)CNCCNC(=O)c1ccc(Nc2nccn3c(-c4cn(CC(F)F)nc4C(F)(F)F)cnc23)cc1Cl` [Example 824, N-(2-((2-((3-aminopropyl)amino)-2-oxoethyl)amino)ethyl)-2-chloro-4-(3-(1-2,2-difluoroethyl)-3-(trifluoromethyl)-1H-pyrazol-4-yl)imidazo[1,2-a]pyrazin-8-yl)amino) benzamide formate] are within 1.5-fold of each other in IC90: 150 nM for the first, 120 nM for the second.

`O=C(CNCCNC(=O)c1ccc(Nc2nccn3c(-c4cn(CC(F)F)nc4C(F)(F)F)cnc23)cc1Cl)NC1CNC1` [Example 821, N-(2-((2-(azetidin-3-ylamino)-2-oxoethyl)amino)ethyl)-2-chloro-4-(3-(1-(2,2-difluoroethyl)-3-(trifluoromethyl)-1H-pyrazol-4-yl)imidazo[1,2-a]pyrazin-8-yl)amino) benzamide formate] and `O=C(CNCCNC(=O)c1ccc(Nc2nccn3c(-c4cn(CC(F)F)nc4C(F)(F)F)cnc23)cc1Cl)N[C@@H]1CCNC1` [Example 823, (R)-2-chloro-4-(3-(1-(2,2-difluoroethyl)-3-(trifluoromethyl)-1H-pyrazol-4-yl)imidazo[1,2-a]pyrazin-8-yl)amino)-N-(2-((2-oxo-2-(pyrrolidin-3-ylamino)ethyl)amino)ethyl) benzamide formate] are within 1.5-fold of each other in IC90: 160 nM for the first, 180 nM for the second.

Going from `N#CCn1cc(-c2cnc3c(Nc4ccc(C(=O)N[C@H]5[C@@H]6CN(C(=O)N[C@@H]7CNC[C@H]7O)C[C@@H]65)c(Cl)c4)nccn23)c(C(F)(F)F)n1` [Example 825, (1s,5r)-6-[[2-chloro-4-[[3-[1-(cyanomethyl)-3-(trifluoromethyl)pyrazol-4-yl]imidazo[1,2-α]pyrazin-8-yl]amino]benzoyl]amino]-N-[(3R,4R)-4 hydroxypyrrolidin-3-yl]-3-azabicyclo[3.1.0]hexane-3-carboxamide formic acid salt] to `CCc1cc(Nc2nccn3c(-c4cn(CC#N)nc4C(F)(F)F)cnc23)ccc1C(=O)NCC1CCN(CC2CNC2)CC1` [Example 828, N-((1-(azetidin-3-ylmethyl)piperidin-4-yl)methyl)-4-((3-(1-(cyanomethyl)-3-(trifluoromethyl)-1H-pyrazol-4-yl)imidazo[1,2-α]pyrazin-8-yl)amino)-2-ethylbenzamide 2,2,2-trifluoroacetate], the IC90 rises from 110 nM to 350 nM (3.2-fold).

Going from `NCCCCCCNC(=O)c1ccc(Nc2nccn3c(-c4cn(CC(F)F)nc4C(F)(F)F)cnc23)cc1Cl` [Example 826, N-(6-aminohexyl)-2-chloro-4-((3-(1-(2,2-difluoroethyl)-3-(trifluoromethyl)-1H-pyrazol-4-yl)imidazo[1,2-α]pyrazin-8-yl)amino)benzamide hydrochloride] to `CCc1cc(Nc2nccn3c(-c4cn(CC(F)F)nc4C(F)(F)F)cnc23)ccc1C(=O)NCCCCCN(CC(=O)O)CC1CNC1` [Example 829, 2-[azetidin-3-ylmethyl-[S-[[4-[[3-[1-(2,2-difluoroethyl)-3-(trifluoromethyl)pyrazol-4-yl]imidazo[1,2-α]pyrazin-8-yl]amino]-2-ethyl-benzoyl]amino]pentyl]amino]acetic acid; formic acid], the IC90 rises from 110 nM to 720 nM (6.5-fold).

`CCc1cc(Nc2nccn3c(-c4c[nH]nc4C(F)(F)F)cnc23)ccc1C(=O)NCC1CCN(CC2CNC2)C1` (stereo not drawn) [Example 827, N-((1-(azetidin-3-ylmethyl)pyrrolidin-3-yl)methyl)-2-ethyl-4-((3-(3-(trifluoromethyl)-1H-pyrazol-4-yl)imidazo[1,2-α]pyrazin-8-yl)amino)benzamide bis(2,2,2-trifluoroacetate)] and `CCc1cc(Nc2nccn3c(-c4cn(CC(F)F)nc4C#N)cnc23)ccc1C(=O)NCCOCCN` [Example 832, N-(2-(2-aminoethoxy)ethyl)-4-((3-(3-cyano-1-(2,2-difluoroethyl)-1H-pyrazol-4-yl)imidazo[1,2-α]pyrazin-8-yl)amino)-2-ethylbenzamide] are within 1.5-fold of each other in IC90: 570 nM for the first, 480 nM for the second.

`CCc1cc(Nc2nccn3c(-c4cn(CC#N)nc4C#N)cnc23)ccc1C(=O)NCCOCCN` [Example 830, N-(2-(2-aminoethoxy)ethyl)-4-((3-(3-cyano-1-(cyanomethyl)-1H-pyrazol-4-yl)imidazo[1,2-α]pyrazin-8-yl)amino)-2-ethyl-benzamide] and `CCc1cc(Nc2nccn3c(-c4cn(CC#N)nc4Cl)cnc23)ccc1C(=O)NCCOCCN` [Example 833, N-(2-(2-aminoethoxy)ethyl)-4-((3-(3-chloro-1-(cyanomethyl)-1H-pyrazol-4-yl)imidazo[1,2-α]pyrazin-8-yl)amino)-2-ethylbenzamide] are within 1.5-fold of each other in IC90: 580 nM for the first, 460 nM for the second.

For `CCc1cc(Nc2nccn3c(-c4cn(CC#N)nc4SC)cnc23)ccc1C(=O)NCCOCCN` [Example 831, N-(2-(2-aminoethoxy)ethyl)-4-((3-(1-(cyanomethyl)-3-(methylthio)-1H-pyrazol-4-yl)imidazo[1,2-α]pyrazin-8-yl)amino)-2-ethylbenzamide], the IC90 was 320 nM.

Same assay, conditions: strain ATCC 17961, OD600 growth over 16 h, read-out: A. baumannii ATCC 17961 IC90

“(3-aminoazetidin- 1-yl)-[2-chloro-4- [[3-[1-(2,2- difluoroethyl)-3- pyrazol-4- yl]imidazo[1,2- a]pyrazin-8- yl]amino]phenyl] methanone [Example 101]” gave an IC90 of 138 nM.

Reference: patent US20230203043A1, “NOVEL IMIDAZOPYRAZINE DERIVATIVES” (Hoffmann-La Roche Inc., priority 2020, published 2023)
